The record followed here is publication PMC11079024, “Identification of a family of species-selective complex I inhibitors as potential anthelmintics” (Nature Communications, 2024).

Structures are written as SMILES. “And” between values parts separate entries of the source, which are not always exact repeats. Equal entries are not always repeated. Where two headings read alike, the source gives them in different places.

In general, LC50 refers to the concentration that kills 50% of the test population.

The test system of one series is adult H. polygyrus. Description: microbe, parasite or virus in culture. The series is classed as cell-based, Heligmosomoides polygyrus. Particulars: anaerobic, 24 hours after treatment; for killing at 10 µM: Heligmosomoides polygyrus, 24 h, adult H. polygyrus, affected = score equal to or lower than 1.5, read-out: Percent Worms Affected; for # of Worms Affected: worms with score equal to or lower than 1.5. The procedure: To investigate the impact of the eleven benzimidazole derivatives under anaerobic conditions, an anaerobic chamber with an integrated incubator (Coy Laboratory Products, USA) was used. The same procedure was followed as described for the aerobic drug screening in adult H. polygyrus, but the incubation took place within the anaerobic chamber (37 °C, 85% N2, 10% CO2, 5% H2). Benzimidazole derivatives were tested at a concentration of 10 µM. For scoring, the plates had to be removed from the anaerobic chamber. The whole experiment was performed two times i.e., two independent biological replicates.
The activities of eleven benzimidazole derivatives were tested against adult H. polygyrus viability in vitro under aerobic (+, white boxplots) and anaerobic (–, coloured boxplots) conditions (see Methods). After 24-hour chemical treatment, worm viability was manually scored by an examiner using a scale from 0 (dead) to 3 (motile); DMSO was used as a negative control in both aerobic and anaerobic conditions; levamisole was used as a positive control in anaerobic conditions. The percentage of affected worms (i.e., worms with a score equal to or lower than 1.5) in each biological replicate is shown; data are from two biological replicates. Within each boxplot, black horizontal lines denote group medians, boxes span from the 25th to the 75th percentile of each group’s distribution, and whiskers extend to the maximum and minimum values. […]

The test system of series [1] is C. elegans complex III (decylubiquinol-cytochrome C reductase). Put plainly: In vitro complex III activity assay, C. elegans mitochondria. It is filed as biochemical, Caenorhabditis elegans. The note with it: for % Activity Complex III: 100 µM compound, relative to solvent control, mean (SEM); for CIII Activity: 100 μM inhibitor, in vitro activity relative to solvent control, N2 C. elegans mitochondria; for Percent in vitro activity, Complex III (single replicate Rep1-Rep4) / Percent in vitro activity, Complex III (Mean): 100 μM of NPD compound, C. elegans mitochondria; for Percent in vitro activity, Complex III (single replicate Rep1-Rep4): individual biological replicates; for Percent in vitro activity, Complex III (Mean): mean of four biological replicates. An outline of the steps: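 Mitochondria were isolated from adult C. elegans by bead-beating and differential centrifugation, then used at 0.2 mg/mL protein. Antimycin A-sensitive complex III activity was followed as decylubiquinol-driven cytochrome C reduction at 550 nm every 30 s for 15 min. Initial linear slopes were expressed as percent of solvent control.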

Another series relates to C. elegans. Put plainly: C. elegans chemical screens of RIKEN NPD libraries at 50 μM (hit identification in KCN survival and development/viability assays). It is filed as cell-based, Caenorhabditis elegans. The note with it: screened at 50 μM in triplicate, KCN = KCN survival assay, Dev. & Viability = development/viability assay.
For another series, the system named is L1 wild-type C. elegans. Description: whole plant or invertebrate. The note with it: Caenorhabditis elegans, 15 h, read-out: C. elegans KCN Survival Assay LC50.
The mark [2] stands for this setting: dose 0.4 µM, individual replicate (Rep).
Where [3] appears, read: dose 0.8 µM, individual replicate (Rep).
Setting [4] is: dose 6.3 µM, individual replicate (Rep).
Setting [5] is: dose 3.1 µM, individual replicate (Rep).
The mark [6] stands for this setting: dose 12.5 µM, individual replicate (Rep).
[7] abbreviates: dose 25 µM, individual replicate (Rep).
The mark [8] stands for this setting: dose 50 µM, individual replicate (Rep).

As to `CC(C)Cc1ccc(C(C)c2nc3ccccc3n2C(C)C)cc1` (centres unmarked) [STK951903], the values for the killing at 10 µM in the series with adult H. polygyrus (replicate 1) and in the series with adult H. polygyrus (replicate 2) were 67% and 83%, respectively. For the same compound, the “# of Worms Affected” value with adult H. polygyrus (replicate 1) is reported as 4; in the series on adult H. polygyrus (replicate 2), 5.

On to `O=C(NCCc1ccc(Cl)cc1)c1ccccc1C(F)(F)F` [Wact-11], for which, in series [1], the “% Activity Complex III” value is 90.97 (1.75) %. Besides, the “CIII Activity” value in series [1] (Mean) was 90.970%; in series [1] (single replicate), 83.802% and 95.824% and 97.988% and 86.268%. The “Percent in vitro activity, Complex III (single replicate Rep1-Rep4)” value (shortened to “Percent … (single replicate Rep1-Rep4)”) in series [1] is 83.802% and 95.824% and 97.988% and 86.268%. In addition, in series [1], the “Percent in vitro activity, Complex III (Mean)” value (“Percent … (Mean)” below) came out at 90.970%. Further, the HEK293 viability in the series on HEK293 cells is 0.997; in the series on HEK293 cells (dose 0.4 µM, Mean of replicates), 0.929; in the series with HEK293 cells (setting [2]) it was 0.886 and 0.902; in the series on HEK293 cells (dose 0.8 µM, Mean of replicates), 0.971; with HEK293 cells (setting [3]), 0.916; in the series on HEK293 cells (dose 6.3 µM, Mean of replicates) it was 0.986. In the series on HEK293 cells (setting [4]), the HEK293 viability was 0.982 and 0.975. In addition, the CC50 in the series on HEK293 cells (read-out: HEK293 Cell Viability Assay LC50, 2 days exposure) was > 50 µM.

Consider `Cc1nc2ccccc2n1Cc1ccccc1Cl` [Compound 6707368], for which, in the series with adult H. polygyrus (replicate 1), the killing at 10 µM stood at 100% and the “# of Worms Affected” value was 6. Besides, in the series with adult H. polygyrus (replicate 2), the killing at 10 µM came out at 33% and the “# of Worms Affected” value was found to be 2.

As for `CC(C)Cc1ccc(C(C)c2nc3ccccc3n2C)cc1` (centres unmarked) [NPD8790], in series [1], the “% Activity Complex III” value is 63.54 (0.90) %; the “Percent … (single replicate Rep1-Rep4)” value was 58.669% and 65.835% and 63.074% and 66.590%; the “Percent … (Mean)” value is reported as 63.542%. In addition, the “Hit Type” value in the series on C. elegans ([…]) is “KCN”. Moreover, the “toxicity against mammalian cells” value in the series with HEK293 cells (HEK293 cells) is given as “low toxicity”. Further, in the series with L1 wild-type C. elegans, the LC50 was 14.3 µM.

In the case of `Cc1nc2ccccc2n1Cc1ccc(Br)cc1` [Compound 5567167], the killing at 10 µM in the series with adult H. polygyrus (replicate 1) was 50%; in the series with adult H. polygyrus (replicate 2), 67%. Moreover, the “# of Worms Affected” value is 3 in the series on adult H. polygyrus (replicate 1) and 4 in the series with adult H. polygyrus (replicate 2).

Regarding `CC(C)(C)c1ccc(CCOc2ncnc3ccccc23)cc1` [Fenazaquin, reference compound], the LC50 with L1 wild-type C. elegans was determined as 0.5 µM.

`Cc1cc(O)c2c(c1)O[C@@]1(C)CC[C@H]3C(C)(C)CCC[C@]34CO[C@@H]2[C@H]41` [Siccanin]: in the series on C. elegans (hit = modified z-score < −3), the “Hit Type” value was “KCN”. Moreover, the HEK293 viability in the series on HEK293 cells (setting [2]) was 0.916; in the series on HEK293 cells (setting [3]), 0.884; with HEK293 cells (setting [5]), 0.838 and 0.744; in the series with HEK293 cells (setting [4]), 0.943 and 0.986; with HEK293 cells (setting [6]) it was 0.861 and 0.895 and 0.672; with HEK293 cells (setting [7]), 0.599 and 0.475 and 0.289. Besides, the HEK293 viability in the series on HEK293 cells (setting [8]) is 0.058 and 0.057. Moreover, in the series on L1 wild-type C. elegans, the LC50 was determined as 6.3 µM.

As for `Clc1ccc(Cn2cnc3ccccc32)c(Cl)c1` [Compound 6750659], in the series on adult H. polygyrus (replicate 1), the killing at 10 µM came to 50% and the “# of Worms Affected” value stood at 3. Moreover, in the series on adult H. polygyrus (replicate 2), the killing at 10 µM was 67% and the “# of Worms Affected” value is 4.

Take `C=C(C)[C@H]1Cc2c(ccc3c2O[C@@H]2COc4cc(OC)c(OC)cc4[C@@H]2C3=O)O1` [Rotenone, reference compound]: in series [1], the “% Activity Complex III” value is reported as 99.20 (1.32) %. For the same compound, the “CIII Activity” value is 99.203% in series [1] (Mean); 92.288% and 102.759% and 97.964% and 103.800% in series [1] (single replicate). Further, in series [1], the “Percent … (single replicate Rep1-Rep4)” value is 102.759% and 97.964% and 103.800% and 92.288%. For the same compound, in series [1], the “Percent … (Mean)” value is on record as 99.203%. In addition, the HEK293 viability in the series on HEK293 cells (setting [2]) was 0.393 and 0.409 and 0.194; in the series with HEK293 cells (setting [3]) it was 0.340 and 0.322; in the series with HEK293 cells (setting [5]), 0.488 and 0.455; in the series with HEK293 cells (setting [4]), 0.380 and 0.286; in the series on HEK293 cells (setting [6]), 0.265; with HEK293 cells (setting [7]), 0.242 and 0.200. Further, the HEK293 viability with HEK293 cells (setting [8]) was 0.196 and 0.203. For the same compound, in the series on L1 wild-type C. elegans, the LC50 was 0.8 µM.

Consider `COc1cc2c(cc1OC)C(/C=C/c1ccc(N(C)C)cc1)=NCC2` [NPD6303], for which, in series [1], the “% Activity Complex III” value is on record as 78.10 (1.39) %; the “Percent … (single replicate Rep1-Rep4)” value was 81.950% and 83.314% and 71.366% and 75.773%; the “Percent … (Mean)” value came out at 78.101%. In addition, the “Hit Type” value in the series with C. elegans ([…]) was “KCN”. Also, in the series with L1 wild-type C. elegans, the LC50 turned out to be 32.2 µM.

Consider `Cc1ccccc1OCCCCn1cnc2ccccc21` [Compound 7732524], for which, in the series with adult H. polygyrus (replicate 1), the killing at 10 µM came out at 60% and the “# of Worms Affected” value was 3. Further, in the series with adult H. polygyrus (replicate 2), the killing at 10 µM stood at 0% and the “# of Worms Affected” value is 0. In the series on L1 wild-type C. elegans, the LC50 worked out at 6.4 µM.

For `Clc1ccc(SCCCCn2cnc3ccccc32)cc1` [Compound 7925515], in the series with adult H. polygyrus (replicate 1), the killing at 10 µM was 100% and the “# of Worms Affected” value is 5. In the series on adult H. polygyrus (replicate 2), the killing at 10 µM turned out to be 83% and the “# of Worms Affected” value was 5.

`COc1cc2c(cc1OC)C(c1ccc(-c3ccc(Cl)c(Cl)c3)o1)=NCC2` [NPD3577]: in series [1], the “% Activity Complex III” value is given as 65.54 (2.59) %; the “Percent … (single replicate Rep1-Rep4)” value was 80.555% and 63.410% and 61.250% and 56.942%; the “Percent … (Mean)” value was determined as 65.539%. In addition, the “Hit Type” value in the series with C. elegans ([…]) is “KCN”. In the series with L1 wild-type C. elegans, the LC50 amounted to 16 µM.

For `CCn1c(C(C)c2ccc(CC(C)C)cc2)nc2ccccc21` (centres unmarked) [STK951902], the killing at 10 µM in the series on adult H. polygyrus (replicate 1) came to 100%; in the series on adult H. polygyrus (replicate 2) it was 67%. Further, the “# of Worms Affected” value is 6 in the series with adult H. polygyrus (replicate 1) and 4 in the series with adult H. polygyrus (replicate 2).

On to `Clc1ccccc1OCCCCn1cnc2ccccc21` [Compound 7925804], for which, in the series with adult H. polygyrus (replicate 1), the killing at 10 µM worked out at 50% and the “# of Worms Affected” value was 3. The “# of Worms Affected” value in the series with adult H. polygyrus (replicate 2) came to 6. Moreover, the “Worm viability score, individual worms (Worm1-Worm20)” value with adult H. polygyrus (replicate 2, scale from 0 (dead) to 3 (motile)) was 2 (3×) and 1.5 (2×) and 1.

For the compound `COc1cc2c(cc1OC)C(C(C)c1ccc(CC(C)C)cc1)=NCC2` (centres unmarked) [NPD10504], in series [1], the “% Activity Complex III” value is recorded as 79.51 (1.51) %; the “Percent … (single replicate Rep1-Rep4)” value was 86.667% and 75.479% and 82.250% and 73.635%; the “Percent … (Mean)” value is 79.508%. The “Hit Type” value with C. elegans ([…]) is “KCN”. The LC50 in the series with L1 wild-type C. elegans came out at 15.6 µM.

In the case of `Cc1nc2ccccc2n1Cc1ccc(Cl)cc1` [STK697993], in the series on adult H. polygyrus (replicate 1), the killing at 10 µM worked out at 100% and the “# of Worms Affected” value is 7. In addition, in the series with adult H. polygyrus (replicate 2), the killing at 10 µM was 33% and the “# of Worms Affected” value worked out at 2. Moreover, the LC50 with L1 wild-type C. elegans amounted to 8.2 µM.
